Experimental data: ChEMBL document CHEMBL5518178 (Eur J Med Chem, 2024)
Active and inactive are the calls of the source. The calls are words filed in the database; no cut-off is given here.

Assays:
MGC-803 [1] = assay: Antiproliferative activity against human MGC-803 cells assessed as decrease in cell damage at 10 to 40 nmol/L incubated for 48 hrs by bright field microscopic analysis; assay type: functional, cell-based; details: dose 10-40 nmol/L
MGC-803 [2] = assay: Anti-migratory activity against human MGC-803 cells assessed as inhibition of cell migration at 10 to 30 nmol/L measured for 48 hrs by crystal-violet staining based transwell migration assay; assay type: functional; details: dose 10-30 nmol/L
[3] = Toxicity in BALB/c-nude mouse xenografted with human MGC-803 cells assessed as alteration in kidney tissue at 30 mg/kg/day, ip administered for 18 days by hematoxylin and eosin staining based analysis; assay type: organism-based; details: in vivo, 432 h, time 18 day
MGC-803 [4] = assay: Induction of apoptosis in human MGC-803 cells assessed as necrotic cells at 40 nmol/L incubated for 48 hrs by Annexin V-FITC/propidium iodide staining based flow cytometer analysis (reference value: 0.32 %); assay type: functional
MGC-803 [5] = assay: Antiproliferative activity against human MGC-803 cells assessed as increase in proportion of dead cells at 10 to 40 nmol/L incubated for 48 hrs by Calcein-AM/propidium iodide staining based fluorescence microscopic analysis; assay type: functional, cell-based; details: dose 10-40 nmol/L
MGC-803 [6] = assay: Antiproliferative activity against human MGC-803 cells assessed as increase in nuclear brightness at 10 to 40 nmol/L incubated for 48 hrs by DAPI staining based fluorescence microscopic analysis; assay type: functional, cell-based; details: dose 10-40 nmol/L
MGC-803 [7] = assay: Antitumor activity against human MGC-803 cells xenografted in BALB/c-nude mouse assessed as tumor weight at 30 mg/kg/day, ip administered for 18 days (reference value: 0.656 g); assay type: functional; details: time 18 day
MGC-803 [8] = assay: Induction of apoptosis in human MGC-803 cells assessed as decrease in Bcl-xL protein level at 10 to 40 nmol/L incubated for 48 hrs by Western blotting; assay type: functional, cell-based; details: dose 10-40 nmol/L
MGC-803 [9] = assay: Induction of apoptosis in human MGC-803 cells assessed as late apoptotic cells at 10 nmol/L incubated for 48 hrs by Annexin V-FITC/propidium iodide staining based flow cytometer analysis (reference value: 2.22 %); assay type: functional
MGC-803 [10] = assay: Antiproliferative activity against human MGC-803 cells assessed as increase in nuclear concentration at 10 to 40 nmol/L incubated for 48 hrs by DAPI staining based fluorescence microscopic analysis; assay type: functional, cell-based; details: dose 10-40 nmol/L
MGC-803 [11] = assay: Induction of apoptosis in human MGC-803 cells assessed as caspase-9 cleavage at 10 to 40 nmol/L incubated for 48 hrs by Western blotting; assay type: functional, cell-based; details: dose 10-40 nmol/L
MGC-803 [12] = assay: Antiproliferative activity against human MGC-803 cells assessed as decrease in cell density at 10 to 40 nmol/L incubated for 48 hrs by bright field microscopic analysis; assay type: functional, cell-based; details: dose 10-40 nmol/L
[13] = Toxicity in BALB/c-nude mouse xenografted with human MGC-803 cells assessed as alteration in liver tissue at 30 mg/kg/day, ip administered for 18 days by hematoxylin and eosin staining based analysis; assay type: organism-based; details: in vivo, 432 h, time 18 day
MGC-803 [14] = assay: Induction of apoptosis in human MGC-803 cells assessed as early apoptotic cells at 40 nmol/L incubated for 48 hrs by Annexin V-FITC/propidium iodide staining based flow cytometer analysis (reference value: 4.38 %); assay type: functional
Tubulin (Homo sapiens) [15] = target: T1, Tubulin (Homo sapiens) (UniProt P68371+Q9H4B7+P0DPH7+P68366+Q13509+Q71U36+P04350+Q3ZCM7+P07437+P68363+Q9BQE3+Q6PEY2+Q13885+Q9BVA1+Q9BUF5); assay: Inhibition of tubulin polymerization in human MGC-803 cells assessed as reduction in filamentous microtubule structure formation at 10 to 40 nmol/L incubated for 48 hrs by DAPI staining based fluorescence microscopic analysis; assay type: cell-based; details: dose 10-40 nmol/L
MGC-803 [16] = assay: Induction of apoptosis in human MGC-803 cells assessed as viable cells at 20 nmol/L incubated for 48 hrs by Annexin V-FITC/propidium iodide staining based flow cytometer analysis (reference value: 93.08 %); assay type: functional; details: read-out: Activity
Tubulin (Homo sapiens) [17] = target: T1, Tubulin (Homo sapiens); assay: Inhibition of tubulin polymerization (unknown origin) at 1 to 3 uM by fluorescence plate reader analysis; assay type: protein-complex assay; details: dose 1-3 µM
[18] = Toxicity in BALB/c-nude mouse xenografted with human MGC-803 cells assessed as alteration in spleen tissue at 30 mg/kg/day, ip administered for 18 days by hematoxylin and eosin staining based analysis; assay type: organism-based; details: in vivo, 432 h, time 18 day
MGC-803 [19] = assay: Antitumor activity against human MGC-803 cells xenografted in BALB/c-nude mouse assessed as tumor growth inhibition at 30 mg/kg/day, ip administered for 18 days relative to control; assay type: functional; details: MGC-803, 432 h, time 18 day, read-out: TGI
KYSE-30 = assay: Antiproliferative activity against human KYSE-30 cells assessed as inhibition of cell growth incubated for 48 hrs by MTT assay; assay type: functional, cell-based; details: KYSE-30, 48 h
MGC-803 [20] = assay: Induction of apoptosis in human MGC-803 cells assessed as necrotic cells at 20 nmol/L incubated for 48 hrs by Annexin V-FITC/propidium iodide staining based flow cytometer analysis (reference value: 0.32 %); assay type: functional
Tubulin (Homo sapiens) [21] = target: T1, Tubulin (Homo sapiens); assay: Inhibition of tubulin polymerization in human MGC-803 cells assessed as appearance of multinucleated cells at 10 to 40 nmol/L incubated for 48 hrs by DAPI staining based fluorescence microscopic analysis; assay type: cell-based; details: dose 10-40 nmol/L
MGC-803 [22] = assay: Anti-migratory activity against human MGC-803 cells assessed as inhibition of cell migration at lower concentration measured for 48 hrs by wound healing assay; assay type: functional, cell-based
MGC-803 [23] = assay: Induction of apoptosis in human MGC-803 cells assessed as viable cells at 10 nmol/L incubated for 48 hrs by Annexin V-FITC/propidium iodide staining based flow cytometer analysis (reference value: 93.08 %); assay type: functional; details: read-out: Activity
[24] = target: Tubulin beta (Homo sapiens) (UniProt P68371+Q9H4B7+Q13509+P04350+Q3ZCM7+P07437+Q13885+Q9BVA1+Q9BUF5+A6NNZ2); assay: Binding affinity to beta-tubulin (unknown origin) assessed as increase in alkaline protease level at 1 to 100 uM preincubated for 1 hr followed by alkaline protease addition and measured after 15 mins by Western blotting analysis; assay type: protein assay; details: dose 1-100 µM, time 75.0 min
[25] = Toxicity in BALB/c-nude mouse xenografted with human MGC-803 cells assessed as abnormal behaviour at 30 mg/kg/day, ip administered for 18 days; assay type: organism-based; details: in vivo, 432 h, time 18 day
[26] = Toxicity in BALB/c-nude mouse xenografted with human MGC-803 cells assessed as alteration in heart tissue at 30 mg/kg/day, ip administered for 18 days by hematoxylin and eosin staining based analysis; assay type: organism-based; details: in vivo, 432 h, time 18 day
MGC-803 [27] = assay: Induction of apoptosis in human MGC-803 cells assessed as increase in cleaved PARP at 10 to 40 nmol/L incubated for 48 hrs by Western blotting; assay type: functional, cell-based; details: dose 10-40 nmol/L
MGC-803 [28] = assay: Induction of apoptosis in human MGC-803 cells assessed as early apoptotic cells at 10 nmol/L incubated for 48 hrs by Annexin V-FITC/propidium iodide staining based flow cytometer analysis (reference value: 4.38 %); assay type: functional
MGC-803 [29] = assay: Antiproliferative activity against human MGC-803 cells assessed as inhibition of cell growth incubated for 48 hrs by MTT assay; assay type: functional, cell-based; details: MGC-803, 48 h
MGC-803 [30] = assay: Anti-migratory activity against human MGC-803 cells assessed as decrease in MMP-2 level at 10 to 40 nmol/L by Western blotting; assay type: functional, cell-based; details: dose 10-40 nmol/L
MGC-803 [31] = assay: Induction of apoptosis in human MGC-803 cells assessed as late apoptotic cells at 20 nmol/L incubated for 48 hrs by Annexin V-FITC/propidium iodide staining based flow cytometer analysis (reference value: 2.22 %); assay type: functional

COc1ccc2c(c1)CCCN2c1cc(=O)oc2ccccc12
Activity (MGC-803 [1]): Active
Activity (MGC-803 [2]): Active
Activity [3]: Non-Toxic
Activity (MGC-803 [4]): 1.3%
Activity (MGC-803 [5]): Active
Activity (MGC-803 [6]): Active
Activity (MGC-803 [7]): 0.226 g
Activity (MGC-803 [8]): Active
Activity (MGC-803 [9]): 2.8%
Activity (MGC-803 [10]): Active
Activity (MGC-803 [11]): Active
Activity (MGC-803 [12]): Active
Activity [13]: Non-Toxic
Activity (MGC-803 [14]): 41.97%
inhibition (Tubulin (Homo sapiens) [15]): Active
viability at 0.02 µM (MGC-803 [16]): 88%
inhibition (Tubulin (Homo sapiens) [17]): Active
Activity [18]: Non-Toxic
inhibition in vivo at 30 mg/kg/day (MGC-803 [19]): 65.5%
IC50 (KYSE-30): 190 nM
Activity (MGC-803 [20]): 0.12%
inhibition (Tubulin (Homo sapiens) [21]): Active
Activity (MGC-803 [22]): Active
viability at 0.01 µM (MGC-803 [23]): 92.2%
Activity [24]: Active
Activity [25]: Non-Toxic
Activity [26]: Non-Toxic
Activity (MGC-803 [27]): Active
Activity (MGC-803 [28]): 4.68%
IC50 (MGC-803 [29]): 34 nM
Activity (MGC-803 [30]): Active
Activity (MGC-803 [31]): 2.7%
